Reference: patent publication US11214803B2, “Modulators of YAP1 expression” (Ionis Pharmaceuticals, Inc., priority 2019, dated 2022)
Marks after values point to notes of the source that are not given here. Strand notation (5' to 3'): a small letter for the sugar, then the base; units joined by * are phosphorothioate-linked, units joined directly phosphodiester-linked; [ ] holds rarer units or linkages, { } end groups; capitals alone tell only the bases. k = constrained ethyl (cEt); [5mC] = 5-methylcytosine; d = 2'-deoxy (DNA)

Legend:
[1] = test system: SNU-1214 cells; experiment: Cell proliferation assay in SNU-1214 cells, CellTiter-Glo (Example 46); type: cell-based, human; settings: free uptake, approximately 144 hours
Experimental: Modified oligonucleotides described in the studies above were tested at various doses in laryngeal squamous cell carcinoma cell line […]. A control oligonucleotide 792169, described herein above, was also tested.
(§1) Cultured SNU-1214 cells at a density of 1000 cells/well were treated using free uptake with modified oligonucleotides diluted to concentrations described in the tables below. After approximately 144 hours, cell proliferation was measured using the luminescent cell viability CellTiter-Glo® 2.0 Assay (Promega). Results are presented in the tables below as percent control of the amount of luminescence in samples treated with modified oligonucleotides relative to untreated control cells (% UTC).

[2] = test system: Yap1 mRNA; experiment: Yap1 mRNA in NCI H292 cells, RNA analysis (Example 32); type: cell-based, human; settings: free uptake, approximately 48 hours
Experimental: (§2) Modified oligonucleotides described in the studies above were tested at various doses in mucoepidermoid pulmonary carcinoma cell line […]. A control oligonucleotide 792169 was also tested.
Cultured NCI H292 cells at a density of 5000 cells per well were treated using free uptake with modified oligonucleotides diluted to concentrations described in the tables below. After approximately 48 hours, Yap1 mRNA levels were measured as previously described using the Human Yap1 primer-probe set RTS4814. Yap1 mRNA levels were normalized to actin-beta content, as measured by primer probe set RTS5002. Results are presented in the tables below as percent control of the amount of Yap1 mRNA relative to untreated control cells (% UTC).

[3] = test system: Yap1 mRNA; experiment: Yap1 mRNA in SNU449 cells in combination with sorafenib (Example 48); type: cell-based, human; settings: free uptake, approximately 48 hours
Experimental: Modified oligonucleotides described in the studies above were tested at various doses in hepatocellular carcinoma cell line SNU449. ION No. 792169, described herein above, was used as a control modified oligonucleotide. ION No. 715487 was used to target Yap1 RNA. […] After approximately 48 hours, Yap1 mRNA levels were measured.
(§3) Yap1 mRNA knockdown in tumors was measured by RT-qPCR as previously described using the Human Yap1 primer-probe set RTS4814. Yap1 mRNA levels were normalized to actin-beta content, as measured by primer probe set RTS5002. Results are presented in the tables below as percent control of the amount of Yap1 mRNA relative to PBS treated cells (% control).

[4] = test system: UPCI:SCC090 cells; experiment: Cell proliferation assay in UPCI:SCC090 cells, CellTiter-Glo (Example 47); type: cell-based, human; settings: free uptake, approximately 144 hours
Experimental: Modified oligonucleotides described in the studies above were tested at various doses in tongue squamous cell carcinoma cell line UPCI:SCC090. A control oligonucleotide 792169, described herein above, was also tested.
as §1, with “UPCI:SCC090” for “SNU-1214”

[5] = test system: NCI H292 cells; experiment: Cell proliferation assay in NCI H292 cells, CellTiter-Glo (Example 32); type: cell-based, human; settings: free uptake, approximately 144 hours
Experimental: as §2
as §1, with “NCI H292” for “SNU-1214”

[6] = Tolerability in Sprague-Dawley rats, plasma chemistry markers (Example 20); type: in vivo; settings: male Sprague-Dawley rats, 50 mg/kg s.c. weekly for 6 weeks (7 doses), 48 hours after last dose
Experimental: Sprague-Dawley rats are a multipurpose model used for safety and efficacy evaluations. The rats were treated with Ionis modified oligonucleotides from the studies described in the Examples above and evaluated for changes in the levels of various plasma chemistry markers.

[7] = rat, in vivo, sc, 50 mg/kg
Experimental: Male Sprague-Dawley rats were maintained on a 12-hour light/dark cycle and fed ad libitum with Purina normal rat chow. Groups of 4 Sprague-Dawley rats each were weekly injected subcutaneously with 50 mg/kg of Ionis oligonucleotide for 6 weeks (total 7 doses). Forty-eight hours after the last dose, the rats were euthanized; and organs, urine and plasma were harvested for further analysis.
To evaluate the effect of Ionis oligonucleotides on kidney function, urinary levels of total protein and creatinine were measured using an automated clinical chemistry analyzer (Hitachi Olympus AU400c, Melville, N.Y.).

[8] = test system: Yap1 mRNA; experiment: Yap1 mRNA levels in SNU449 xenograft tumors, alone and in combination with sorafenib (second Example 30); type: in vivo, human; settings: SNU449 xenograft mice, oligonucleotide 50 mg/kg, sorafenib 30 mg/kg orally, tumors collected day 119 post implantation, relative to PBS
Experimental: Modified oligonucleotides described in the studies above were tested in a hepatocellular carcinoma SNU449 xenograft tumor model. In addition to testing the modified oligonucleotide by itself, combination therapy with sorafenib was also tested. A control oligonucleotide 792169, described herein above, was also tested.
Five million SNU449 cells in 30% matrigel were implanted subcutaneously into the fatpads of female NOD.Cg-Prkdcscid II2rgtmlWjl/SzJ mice (from Jackson Laboratory) at 4-6 weeks of age. 43 days post implantation (when tumors had reached approximately 100 mm^3 in size), groups of eight mice each were administered with 50 mg/kg modified oligonucleotide daily for 10 days (loading dose), following which they were administered with 50 mg/kg modified oligonucleotide four times a week for one week, following which they were dosed with 50 mg/kg modified oligonucleotide thrice weekly until the end of the study. […] Animals were sacrificed, and tumors were collected on day 119 post implantation.
as §3, with “animals” for “cells”

[9] = oligonucleotide at 0.04 uM, sorafenib 0 uM
[10] = oligonucleotide at 0.04 uM, sorafenib 0.37 uM
[11] = oligonucleotide at 0.04 uM, sorafenib 3.33 uM
[12] = oligonucleotide at 0.04 uM, sorafenib 10 uM
[13] = oligonucleotide at 0.04 uM, sorafenib […]
[14] = oligonucleotide at 0.2 uM, sorafenib 0 uM
[15] = oligonucleotide at 0.2 uM, sorafenib 0.37 uM
[16] = oligonucleotide at 0.2 uM, sorafenib 3.33 uM
[17] = oligonucleotide at 0.2 uM, sorafenib 10 uM
[18] = oligonucleotide at 0.2 uM, sorafenib […]
[19] = oligonucleotide at 1 uM, sorafenib 0 uM
[20] = oligonucleotide at 1 uM, sorafenib 0.37 uM
[21] = oligonucleotide at 1 uM, sorafenib 3.33 uM
[22] = oligonucleotide at 1 uM, sorafenib 10 uM
[23] = oligonucleotide at 1 uM, sorafenib […]
[24] = oligonucleotide at 5 uM, sorafenib 0 uM
[25] = oligonucleotide at 5 uM, sorafenib 0.37 uM
[26] = oligonucleotide at 5 uM, sorafenib 3.33 uM
[27] = oligonucleotide at 5 uM, sorafenib 10 uM
[28] = oligonucleotide at 5 uM, sorafenib […]

715487 (kA*kT*kT*dA*d[5mC]*dT*dT*d[5mC]*dA*dT*dA*dG*d[5mC]*kT*kT*kA) [compound 715487]
Antiproliferative effect (cell proliferation, luminescence) ([1]; 0.04 μM): 93 % UTC | Antiproliferative effect (cell proliferation, luminescence) ([1]; 0.2 μM): 69 % UTC | Antiproliferative effect (cell proliferation, luminescence) ([1]; 1 μM): 52 % UTC | Antiproliferative effect (cell proliferation, luminescence) ([1]; 5 μM): 38 % UTC | human Yap1 mRNA expression ([2]; 0.04 μM): 104 % UTC | human Yap1 mRNA expression ([2]; 0.2 μM): 83 % UTC | human Yap1 mRNA expression ([2]; 1 μM): 40 % UTC | human Yap1 mRNA expression ([2]; 5 μM): 12 % UTC | YAP1 mRNA [3, 9]: 98 % control | YAP1 mRNA [3, 10]: 97 % control | YAP1 mRNA [3, 11]: 83 % control | YAP1 mRNA [3, 12]: 78 % control | YAP1 mRNA [3, 13]: 77 % control | YAP1 mRNA [3, 14]: 54 % control | YAP1 mRNA [3, 15]: 51 % control | YAP1 mRNA [3, 16]: 45 % control | YAP1 mRNA [3, 17]: 46 % control | YAP1 mRNA [3, 18]: 44 % control | YAP1 mRNA [3, 19]: 30 % control | YAP1 mRNA [3, 20]: 23 % control | YAP1 mRNA [3, 21]: 21 % control | YAP1 mRNA [3, 22]: 20 % control | YAP1 mRNA [3, 23]: 22 % control | YAP1 mRNA [3, 24]: 9 % control | YAP1 mRNA [3, 25]: 8 % control | YAP1 mRNA [3, 26]: 7 % control | YAP1 mRNA [3, 27]: 8 % control | YAP1 mRNA [3, 28]: 7 % control | Antiproliferative effect (cell proliferation, luminescence) ([4]; 0.04 μM): 92 % UTC | Antiproliferative effect (cell proliferation, luminescence) ([4]; 0.2 μM): 94 % UTC | Antiproliferative effect (cell proliferation, luminescence) ([4]; 1 μM): 72 % UTC | Antiproliferative effect (cell proliferation, luminescence) ([4]; 5 μM): 68 % UTC | Antiproliferative effect (cell proliferation, luminescence) ([5]; 0.04 μM): 87 % UTC | Antiproliferative effect (cell proliferation, luminescence) ([5]; 0.2 μM): 90 % UTC | Antiproliferative effect (cell proliferation, luminescence) ([5]; 1 μM): 69 % UTC | Antiproliferative effect (cell proliferation, luminescence) ([5]; 5 μM): 20 % UTC

1076453 (GTAATATTGCAATCTG; 3-10-3 cEt gapmer, further chemistry not given here) [compound 1076453]
ALB [6]: 3.14 g/dL | ALT [6]: 47 U/L | AST [6]: 77 U/L | BUN [6]: 23 mg/dL | TBIL [6]: 0.13 mg/dL

958499 (ATTAGAGTATGTGGCA; 3-10-3 cEt gapmer, further chemistry not given here) [compound 958499]
ALB [6]: 2.78 g/dL | ALT [6]: 61 U/L | AST [6]: 109 U/L | BUN [6]: 24 mg/dL | TBIL [6]: 0.18 mg/dL

1198439 (AGTGTATGTCAGAAGA; sugar, 5-methylcytosine, phosphorothioate modifications, further chemistry not given here) [compound 1198439]
URINE P/C ratio (total protein to creatinine ratio) [7]: 8*

CGCCGATAAGGTACAC (cEt gapmer, phosphorothioate backbone, further chemistry not given here) [ION 792169, reference compound]
Antiproliferative effect (cell proliferation, luminescence) ([1]; 0.04 μM): 105 % UTC | Antiproliferative effect (cell proliferation, luminescence) ([1]; 0.2 μM): 90 % UTC | Antiproliferative effect (cell proliferation, luminescence) ([1]; 1 μM): 96 % UTC | Antiproliferative effect (cell proliferation, luminescence) ([1]; 5 μM): 72 % UTC | human Yap1 mRNA expression ([2]; 0.04 μM): 98 % UTC | human Yap1 mRNA expression ([2]; 0.2 μM): 112 % UTC | human Yap1 mRNA expression ([2]; 1 μM): 111 % UTC | human Yap1 mRNA expression ([2]; 5 μM): 106 % UTC | YAP1 mRNA [3, 9]: 115 % control | YAP1 mRNA [3, 10]: 97 % control | YAP1 mRNA [3, 11]: 99 % control | YAP1 mRNA [3, 12]: 102 % control | YAP1 mRNA [3, 13]: 100 % control | YAP1 mRNA [3, 14]: 113 % control | YAP1 mRNA [3, 15]: 96 % control | YAP1 mRNA [3, 16]: 91 % control | YAP1 mRNA [3, 17]: 94 % control | YAP1 mRNA [3, 18]: 97 % control | YAP1 mRNA [3, 19]: 103 % control | YAP1 mRNA [3, 20]: 99 % control | YAP1 mRNA [3, 21]: 92 % control | YAP1 mRNA [3, 22]: 93 % control | YAP1 mRNA [3, 23]: 93 % control | YAP1 mRNA [3, 24]: 103 % control | YAP1 mRNA [3, 25]: 104 % control | YAP1 mRNA [3, 26]: 97 % control | YAP1 mRNA [3, 27]: 97 % control | YAP1 mRNA [3, 28]: 95 % control | Antiproliferative effect (cell proliferation, luminescence) ([4]; 0.04 μM): 100 % UTC | Antiproliferative effect (cell proliferation, luminescence) ([4]; 0.2 μM): 104 % UTC | Antiproliferative effect (cell proliferation, luminescence) ([4]; 1 μM): 99 % UTC | Antiproliferative effect (cell proliferation, luminescence) ([4]; 5 μM): 93 % UTC | Yap1 mRNA levels in tumors [8]: 90 % control | Antiproliferative effect (cell proliferation, luminescence) ([5]; 0.04 μM): 98 % UTC | Antiproliferative effect (cell proliferation, luminescence) ([5]; 0.2 μM): 97 % UTC | Antiproliferative effect (cell proliferation, luminescence) ([5]; 1 μM): 99 % UTC | Antiproliferative effect (cell proliferation, luminescence) ([5]; 5 μM): 92 % UTC
